Legend:
[1] = collision cross section (TIMS, N2 drift gas) of the primary ion; higher = larger gas-phase ion size
[2] = reversed-phase LC retention time (C18, 15 min MeOH gradient); higher = more hydrophobic / later elution
[3] = ionization mode: ESI+, ion species: [M+H]+
[4] = ionization mode: ESI-, ion species: [M-H]-
[5] = ionization mode: ESI+, ion species: [M]+

SMILES	collision cross section [1, 3] [Å²]	reversed-phase LC retention time [2, 3] [min]	collision cross section [1, 4] [Å²]	reversed-phase LC retention time [2, 4] [min]	collision cross section [1, 5] [Å²]	reversed-phase LC retention time [2, 5] [min]
Nc1ccc2nc3c(N)cccc3nc2c1 [1,7-Diaminophenazine]	143.6	8.4	–	–	–	–
Nc1ccc(S(=O)(=O)Nc2ccccn2)cc1 [Sulfapyridine]	154.05	6.69	155.15	6.7	–	–
CN1CCCC(n2nc(Cc3ccc(Cl)cc3)c3ccccc3c2=O)CC1 (stereo not drawn) [Azelastine]	189.23	12.7	–	–	–	–
CC(C)(c1ccccc1)c1ccc(O)cc1 [4-Cumylphenol]	–	–	156.38	15.7	–	–
CC(C)(C(=O)O)c1ccc(C(O)CCCN2CCC(C(O)(c3ccccc3)c3ccccc3)CC2)cc1 (stereo not drawn) [Fexofenadine]	223.95	12.8	224.37	14.2	–	–
CCCCCCCCn1sccc1=O [2-Octyl-4-isothiazolin-3-one]	157.49	14.9	–	–	–	–
COc1cc2nc(N3CCNCC3)nc(N)c2cc1OC [6,7-Dimethoxy-2-(piperazin-1-yl)quinazolin-4-amine]	172.06	6.11	–	–	–	–
O=C(O)C1C(C(=O)O)C2(Cl)C(Cl)=C(Cl)C1(Cl)C2(Cl)Cl (stereo not drawn)	–	–	159.01	10.3	–	–
COCCOCCOCCO [2-(2-(2-Methoxyethoxy)ethoxy)ethanol]	135.18	10.6	–	–	–	–
CC(CCOC(=O)c1ccccc1C(=O)OCCC(C)CC(C)(C)C)CC(C)(C)C (stereo not drawn) [Di-isononyl phthalate]	224	19.6	–	–	–	–
CCC(C)(C)C(=O)OC1=C(c2ccc(Cl)cc2Cl)C(=O)OC12CCCCC2 [Spirodiclofen]	193.38	11.5	–	–	–	–
CNC(=O)CSP(=O)(OC)OC [Omethoate]	135.65	6.04	–	–	–	–
CC1(C)CON(Cc2ccccc2Cl)C1=O [Clomazon]	146.86	13.5	–	–	–	–
CCOCCN(C(=O)CCl)C(=C(C)C)c1ccccc1 [Pethoxamid]	166.72	14.9	–	–	–	–
O=C1CCCC2C3CC(CN12)C1CCCCN1C3 (stereo not drawn) [Lupanine]	154.3	5.52	–	–	–	–
CC(=O)[C@@]1(O)CC[C@H]2[C@@H]3C=C(Cl)C4=CC(=O)[C@@H]5C[C@@H]5[C@]4(C)[C@H]3CC[C@@]21C [Cyproterone]	190.49	14.6	190.87	14.9	–	–
CC(C)c1ccc2sc3ccccc3c(=O)c2c1 [2-Isopropylthioxanthone]	155.68	17.1	–	–	–	–
CC1(C)CC(N)CC(C)(CN)C1 (stereo not drawn) [Isophorone diamine]	141.08	1.84	–	–	–	–
CC(NC(C)(C)C)C(=O)c1cccc(Cl)c1 (stereo not drawn) [Bupropion]	158.6	10.3	–	–	–	–
Cc1cccc(C(=O)O)c1N(Cn1cccn1)C(=O)C(=O)O [Metazachlor BH479-12]	160.33	8.13	–	–	–	–
COc1cc(O)c(C(=O)c2ccccc2)cc1S(=O)(=O)O [Benzophenone-4]	–	–	168.24	9.83	–	–

SMILES	collision cross section [1, 3] [Å²]	reversed-phase LC retention time [2, 3] [min]	collision cross section [1, 4] [Å²]	reversed-phase LC retention time [2, 4] [min]	collision cross section [1, 5] [Å²]	reversed-phase LC retention time [2, 5] [min]
CON(C)C(=O)Nc1ccc(Cl)c(Cl)c1 [Linuron]	152.6	13.7	149.38	14	–	–
CC1=CC(=O)NS(=O)(=O)O1 [Acesulfame]	–	–	122.01	2.26	–	–
CC1(C)O[C@@H]2C[C@H]3[C@@H]4CCC5=CC(=O)C=C[C@]5(C)[C@H]4[C@@H](O)C[C@]3(C)[C@]2(C(=O)CO)O1 [Desonide]	200.7	13.6	–	–	–	–
O=P(c1ccccc1)(c1ccccc1)c1ccccc1 [Triphenylphosphine oxide]	163	13.9	–	–	–	–
CCc1ccc(CCOc2ccc(CC3SC(=O)NC3=O)cc2)nc1 (stereo not drawn) [Pioglitazone]	179.07	11.1	176.43	13.3	–	–
CO/C=C(/C(=O)O)c1ccccc1Oc1cc(Oc2ccccc2C#N)ncn1 [Azoxystrobin acid]	190.75	13	188.36	11.5	–	–
CCC(C(N)=O)(C(N)=O)c1ccccc1 [Phenylethylmalonamide]	142.07	7.73	–	–	–	–
NC(=O)N1c2ccccc2C(O)C(O)c2ccccc21 (stereo not drawn) [10,11-Dihydro-10,11-dihydroxycarbamazepine]	157.4	10.4	–	–	–	–
O=C1NCCN1Cc1ccc(Cl)nc1 [Imidacloprid-urea]	143.26	8.55	–	–	–	–
CCOC(=O)CC(O)(CC(=O)OCC)C(=O)OCC [Triethylcitrate]	159.4	11.8	–	–	–	–
CC(C)C(=O)c1ccccc1 [Isobutyrophenone]	128.32	17.1	–	–	–	–
CCCCC(C#N)(Cn1cncn1)c1ccc(Cl)cc1 (stereo not drawn) [Myclobutanil]	175	14.5	–	–	–	–
CC(C)C1C2CCC1c1c(NC(=O)c3cn(C)nc3C(F)F)cccc12 (stereo not drawn) [Isopyrazam]	185.35	16.2	191.1	16.6	–	–
CCNc1nc(NC(C)(C)C)nc(SC)n1 [Terbutryn]	160.25	14	–	–	–	–
CCCCCCCCCCCCCC(=O)NCCC[N+](C)(C)CCCS(=O)(=O)O [Amidosulfobetaine-14]	–	–	–	–	217.87	16.9
CCCCCCCCCCCCCCCC[N+](C)(C)C [Hexadecyltrimethylammonium]	–	–	–	–	196.39	17.4
CC(=O)Nc1c(C)n(C)n(-c2ccccc2)c1=O [N-Acetyl-4-aminoantipyrine]	154.74	7.85	–	–	–	–
NS(=O)(=O)C(F)(F)C(F)(F)C(F)(F)C(F)(F)C(F)(F)C(F)(F)C(F)(F)C(F)(F)F [Perfluorooctanesulfonamide]	–	–	169.81	15.7	–	–
CN(C)CCC=C1c2ccccc2CCc2ccccc21 [Amitriptyline]	167.84	13.1	–	–	–	–
CCCCCCCCCCCC[N+](C)(C)[O-] [N,N-Dimethyldodecylamine N-oxide]	175.77	15.6	–	–	–	–
O=C(O)Cc1ccccc1Nc1c(Cl)cccc1Cl [Diclofenac]	159.21	15.3	161.99	13.3	–	–

SMILES	collision cross section [1, 3] [Å²]	reversed-phase LC retention time [2, 3] [min]	collision cross section [1, 4] [Å²]	reversed-phase LC retention time [2, 4] [min]	collision cross section [1, 5] [Å²]	reversed-phase LC retention time [2, 5] [min]
CC1(C)CC(O)CC(C)(C)N1CCO [4-Hydroxy-1-(2-hydroxyethyl)-2,2,6,6-tetramethylpiperidine]	143.1	2.23	–	–	–	–
CN(C)C(=O)C(CCN1CCC(O)(c2ccc(Cl)cc2)CC1)(c1ccccc1)c1ccccc1 [Loperamide]	221.69	13.6	–	–	–	–
CCC(C)(c1ccc(O)cc1)c1ccc(O)cc1 [Bisphenol B]	–	–	165.01	14.3	–	–
CC(C)N(C(=O)COc1nnc(C(F)(F)F)s1)c1ccc(F)cc1 [Flufenacet]	178.11	14.9	–	–	–	–
Cc1cccc(C)c1N(Cn1cccn1)C(=O)CS(C)=O (stereo not drawn) [Metazachlor BH 479-11]	163.01	10.3	–	–	–	–
CC[N+](CC)(CC)CC [Tetraethylammonium]	–	–	–	–	123.33	1.03
C[C@]12CC(=O)[C@H]3[C@@H](CCC4=CC(=O)CC[C@@]43C)[C@@H]1CC[C@@H]2O [11-Ketotestosterone]	174.04	12.6	–	–	–	–
CC1(C(=O)Nc2ccc(O)c(Cl)c2Cl)CCCCC1 [Fenhexamid]	166.46	14.8	172.09	14.6	–	–
O=c1[nH]c2ccccc2s1 [2-Hydroxybenzothiazole]	126.56	10.5	122.14	10.6	–	–
Fc1ccc(C2(Cn3cncn3)OC2c2ccccc2Cl)cc1 (stereo not drawn) [Epoxiconazole]	176.09	14.9	–	–	–	–
CCCCCCCCCCCOC(=O)c1ccccc1C(=O)OCCCCCCCCCCC [Diundecylphthalate]	241.8	20.8	–	–	–	–
N#Cc1nn(-c2c(Cl)cc(C(F)(F)F)cc2Cl)c(N)c1S(=O)(=O)C(F)(F)F [Fipronil sulfone]	–	–	178.27	16.1	–	–
O=c1[nH]nc(C(F)(F)F)s1 [Thiadone]	–	–	115.69	6.79	–	–
CCCN(CCC)CCC [Tripropylamine]	131.65	6.72	–	–	–	–
COc1ccc(Cl)cc1C(=O)NCCc1ccc(S(=O)(=O)NC(=O)NC2CCCCC2)cc1 [Glibenclamide]	208.58	14.8	214.7	14	–	–
CCCCCCCCCCCCNC [N-Methyldodecylamine]	167.22	15.5	–	–	–	–
COCCCCC(=NOCCN)c1ccc(C(F)(F)F)cc1 [Fluvoxamine]	178.07	13.3	–	–	–	–
O=S(=O)(O)C(F)(F)C(F)(F)C(F)(F)C(F)(F)C(F)(F)C(F)(F)C(F)(F)F [Perfluoroheptanesulfonic acid]	–	–	159.45	14.7	–	–
c1ccc2ncccc2c1 [Quinoline]	118.24	9.66	–	–	–	–
CNC1=C(c2cccc(C(F)(F)F)c2)C(=O)C(c2ccccc2)O1 (stereo not drawn) [Flurtamone]	179.28	13.9	175.08	14.2	–	–
